Among the data in US11827628B2, “Compositions and methods for inhibition of the JAK pathway” (Rigel Pharmaceuticals, Inc., priority 2005, dated 2023) are IC50 values, retold here.

Molecules are shown by their SMILES. Read-outs that look alike come from different tables or passages of the source.

In one assay the test system is Primary human T-cells. As to the kind of experiment: Primary Human T-Cell Proliferation Assay Stimulated with IL-2 (CellTiter-Glo). The class given is cell-based. To be noted: read-out: IC50, Example 42. From the text: The activity of the active compounds of the invention may further be characterized by assaying the effect of the 2,4-substituted pyrimidinediamine compounds described herein on the proliferative response of primary human T-cells. In this assay, primary human T-cells derived from peripheral blood and pre-activated through stimulation of the T-cell receptor and CD28, proliferate in culture in response to the cytokine Interleukin-2 (IL-2). This proliferative response is dependent on the activation of JAK1 and JAK3 tyrosine kinases, which phosphorylate and activate the transcription factor Stat-5. The primary human T-cells are incubated with the 2,4-substituted pyrimidinediamine compounds in the presence of IL-2 for 72 hours and at the assay endpoint intracellular ATP concentrations are measured to assess cell viability. A reduction in cell proliferation compared to control conditions is indicative of inhibition of the JAK kinase pathway. An exemplary assay of this type is described in greater detail in Example 42
Primary human T-cells derived from peripheral blood and pre-activated through stimulation of the T-cell receptor and CD28, proliferate in vitro in response to the cytokine Interleukin-2 (IL-2). This proliferative response is dependent on the activation of JAK-1 and JAK-3 tyrosine kinases, which phosphorylate and activate the transcription factor Stat-5.
Human primary T cells were prepared as follows. Whole blood was obtained from a healthy volunteer, mixed 1:1 with PBS, layered on to Ficoll Hypaque (Amersham Pharmacia Biotech, Piscataway, NJ, Catalog #17-1440-03) in 2:1 blood/PBS:ficoll ratio and centrifuged for 30 min at 4° C. at 1750 rpm. The lymphocytes at the serum: ficoll interface were recovered and washed twice with 5 volumes of PBS. The cells were resuspended in Yssel's medium (Gemini Bio-products, Woodland, CA, Catalog #400-103) containing 40 U/mL recombinant IL2 (R and D Systems, Minneapolis, MN, Catalog #202-IL (20 rig)) and seeded into a flask pre-coated with 1 μg/mL anti-CD3 (BD Pharmingen, San Diego, CA, Catalog #555336) and 5 μg/mL anti-CD28 (Immunotech, Beckman Coulter of Brea CA, Catalog #IM1376). The primary T-cells were stimulated for 3-4 days, then transferred to a fresh flask and maintained in RPMI with 10% FBS and 40 U/mL IL-2.
Primary T-cells were washed twice with PBS to remove the IL-2 and resuspended in Yssel's medium at 2×10^6 cells/mL. 50 μL of cell suspension containing 80 U/mL IL-2 was added to each well of a flat bottom 96 well black plate. For the unstimulated control, IL-2 was omitted from the last column on the plate. Compounds were serially diluted in dimethyl sulfoxide (DMSO, 99.7% pure, cell culture tested, Sigma-Aldrich, St. Louis, MO, Catalog No. D2650) from 5 mM in 3-fold dilutions, and then diluted 1:250 in Yssel's medium. 50 μL of 2× compound was added per well in duplicate and the cells were allowed to proliferate for 72 hours at 37° C.
Proliferation was measured using CellTiter-Glo® Luminescent Cell Viability Assay (Promega), which determines the number of viable cells in culture based on quantitation of the ATP present, as an indicator of metabolically active cells. The substrate was thawed and allowed to come to room temperature. After mixing the Cell Titer-Glo reagent and diluent together, 100 μL was added to each well. The plates were mixed on an orbital shaker for two minutes to induce lysis and incubated at room temperature for an additional ten minutes to allow the signal to equilibrate. Detection was performed using a Wallac Victor2 1420 multilabel counter purchased from Perkin Elmer, Shelton, CT The IC50 calculated based on the results of this assay are provided in TABLE XII.
(Cellular ATP, detected with luciferase, serves as a proxy for viable cell number.)

Assay [1] deals with IL-4 stimulated expression of CD23 in human Ramos B cells (JAK-1 and JAK-3). As to the kind of experiment: Assay for Ramos B-Cell Line Stimulated with IL-4 (CD23 upregulation, FACS). The class given is cell-based. To be noted: read-out: IC50, Example 41. In a few lines:
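Human Ramos B cells (5×10^4 per point, RPMI 5% serum) pre-incubated 1 h at 37 °C with compound or DMSO, then stimulated with IL-4 at 50 units/mL final for 20-24 h. CD23 upregulation measured by anti-CD23-PE staining and flow cytometry; IC50 derived.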

[2] abbreviates: primary human T-cell proliferation stimulated with IL-2.
Where [3] appears, read: Ramos B-cell line stimulated with IL-4, CD23 expression by FACS.
Setting [4] is: primary human T-cells stimulated with IL-2, proliferation.
The mark [5] stands for this setting: Ramos B cells stimulated with IL-4, CD23 expression by FACS.
Setting [6] is: Homo sapiens, T-cell, primary human T-cell proliferation stimulated with IL-2.
Setting [7] is: Homo sapiens, Ramos, Ramos B-cell line stimulated with IL-4, CD23 expression by FACS.

In the case of `Cc1cc(COc2ccc(Nc3nc(Nc4ccc(S(N)(=O)=O)cc4)ncc3F)cc2C)no1` [Compound I-240, N2-(4-Aminosulfonylphenyl)-5-fluoro-N4-[3methyl-4-(5-methylisoxazol-3-yl)methyleneoxyphenyl]-2,4-pyrimidinediamine], the IC50 in the assay with Primary human T-cells (setting [2]) turned out to be 5.26 µM; in assay [1] (setting [3]), 0.205 µM.

Regarding `Cc1noc(COc2cccc(Nc3nc(Nc4ccc(S(N)(=O)=O)cc4)ncc3F)c2)n1` [Compound I-253, N2-(4-Aminosulfonylphenyl)-5-fluoro-N4-[3-(3-methyl-1,2,4-oxadiazol-5-yl)methyleneoxyphenyl]-2,4-pyrimidinediamine], the IC50 in the assay on Primary human T-cells (setting [2]) worked out at 2.56 µM; in assay [1] (setting [3]) it was 0.127 µM.

On to `Cc1cc(COc2ccc(Nc3nc(Nc4ccc(C)c(S(N)(=O)=O)c4)ncc3F)cn2)no1` [Compound V-1, N2-(3-Aminosulfonyl-4-methylphenyl)-5-fluoro-N4-[2-(5-methylisoxazol-3-yl)methyleneoxypyridin-5-yl]-2,4-pyrimidinediamine], for which the IC50 was 9.77 µM in the assay with Primary human T-cells (setting [4]) and 2 µM in assay [1] (setting [5]).

As for `CC1(C)Oc2cc(Nc3nc(Nc4ccc(Cl)c(S(N)(=O)=O)c4)ncc3F)cnc2N(CC#N)C1=O` [Compound V-15, N2-(3-Aminosulfonyl-4-chlorophenyl)-N4-[2,2-dimethyl-3-oxo-4-cyanomethyl-5-pyrid[1,4]oxazin-7-yl]-5-fluoro-2,4-pyrimidinediamine], the IC50 stood at 9.31 µM with Primary human T-cells (setting [4]) and 0.173 µM in assay [1] (setting [5]).

Turning to `Cc1ccc(Nc2ncc(F)c(Nc3ccc(OC4CCN(C)CC4)c(Cl)c3)n2)cc1S(N)(=O)=O` [II-8, N2-(3-Aminosulfonyl-4-methylphenyl)-5-fluoro-N4-{3-chloro-4-[(1-methylpiperidin-4-yl)oxy]phenyl}-2,4-pyrimidinediamine], the IC50 amounted to 0.564 µM in the assay with Primary human T-cells (setting [6]) and 0.0388 µM in assay [1] (setting [7]).

Turning to `NS(=O)(=O)c1ccc(Nc2ncc(F)c(Nc3ccc(Oc4cccnc4)cc3)n2)cc1` [II-14, N2-(4-Aminosulfonylphenyl)-5-fluoro-N4-[4-(3-pyridyloxy)phenyl]-2,4-pyrimidinediamine], the figures for the IC50 (with Primary human T-cells (setting [6]); in assay [1] (setting [7])) were 0.579 µM and 0.0469 µM, respectively.

With `NS(=O)(=O)c1cc(Nc2ncc(F)c(Nc3ccc(Oc4cccnc4)cc3)n2)cc(S(N)(=O)=O)c1` [II-15, N2-[3,5-bis(Aminosulfonyl)phenyl)-5-fluoro-N4-[4-(3-pyridyloxy)phenyl]-2,4-pyrimidinediamine], the half-maximal inhibitory concentration (IC50) with Primary human T-cells (setting [6]) was determined as 1.1 µM; in assay [1] (setting [7]), 0.982 µM.

Turning to `Cc1ccc(Nc2ncc(F)c(Nc3ccc(Oc4ccncc4)cc3)n2)cc1S(N)(=O)=O` [II-16, N2-(3-Aminosulfonyl-4-methylphenyl)-5-fluoro-N4-[4-(4-pyridyloxy)phenyl]-2,4-pyrimidinediamine], the IC50 with Primary human T-cells (setting [6]) was 3.72 µM; in assay [1] (setting [7]), 18.3 µM.

For `NS(=O)(=O)c1cccc(Nc2ncc(F)c(Nc3ccc(Oc4ccncc4)cc3)n2)c1` [II-17, N2-(3-Aminosulfonylphenyl)-5-fluoro-N4-[4-(4-pyridyloxy)phenyl]-2,4-pyrimidinediamine], the IC50 stood at 8.21 µM in the assay on Primary human T-cells (setting [6]) and 21.2 µM in assay [1] (setting [7]).

Consider `CNS(=O)(=O)c1cc(Nc2ncc(F)c(Nc3ccc(Oc4ccncc4)cc3)n2)ccc1C` [II-18, 5-Fluoro-N2-[3-(N-methylaminosulfony)-4-methylphenyl]-5-fluoro-N4-[4-(4-pyridyloxy)phenyl]-2,4-pyrimidinediamine], for which the half-maximal inhibitory concentration (IC50) came to 3.31 µM in the assay on Primary human T-cells (setting [2]) and 2.04 µM in assay [1] (setting [3]).

Consider `N#CCCc1ccc(Nc2nc(Nc3ccc(Cl)c(S(N)(=O)=O)c3)ncc2F)cc1` [III-13, N2-(3-Aminosulfonyl-4-chlorophenyl)-N4-[4-(2-cyanoethyl)phenyl]-5-fluoro-2,4-pyrimidinediamine], for which the IC50 with Primary human T-cells (setting [6]) worked out at 0.701 µM; in assay [1] (setting [7]) it was 0.295 µM.

With `Cc1cc(CCC#N)ccc1Nc1nc(Nc2cccc(S(N)(=O)=O)c2)ncc1F` [III-24, N2-(3-Aminosulfonylphenyl)-N4-(4-cyanoethylene-2-methylphenyl)-5-fluoro-2,4-pyrimidinediamine], the values for the IC50 (in the assay with Primary human T-cells (setting [2]); in assay [1] (setting [3])) were 1.62 µM and 0.258 µM, respectively.

For orientation: IC50 means the concentration at which inhibition is half-maximal.
